Consider 3 substances from US9725441B2, “Histone demethylase inhibitors” (CELGENE QUANTICEL RESEARCH, INC., priority 2012, dated 2017).

pIC50: −log10 of the molar value.

Sequence of JMJD2C (Q9H3R0 2-372): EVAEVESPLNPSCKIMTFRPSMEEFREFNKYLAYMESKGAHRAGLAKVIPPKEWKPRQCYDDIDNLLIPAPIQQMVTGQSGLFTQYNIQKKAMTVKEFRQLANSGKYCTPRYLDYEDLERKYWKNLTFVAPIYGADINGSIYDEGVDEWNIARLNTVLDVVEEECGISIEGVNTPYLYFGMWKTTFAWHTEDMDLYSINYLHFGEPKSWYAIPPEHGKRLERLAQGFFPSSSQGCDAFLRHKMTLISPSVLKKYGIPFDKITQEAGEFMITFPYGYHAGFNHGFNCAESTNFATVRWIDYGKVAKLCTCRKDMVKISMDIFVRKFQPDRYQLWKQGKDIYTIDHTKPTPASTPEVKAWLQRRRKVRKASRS

This assay has as its target JMJD2C (Homo sapiens (Human), UniProt Q9H3R0). The assay can be described thus: JMJD2C in vitro enzyme inhibition assay (TR-FRET). Type of assay: biochemical. To be noted: 0.3 nM JMJD2C, 300 nM H3K9me3-biotin peptide, 2 μM alpha-ketoglutaric acid. From the text:
This assay determines the ability of a test compound to inhibit Jarid1A, Jarid1B, and JMJD2C demethylase activity. Baculovirus expressed Jarid1A (GenBank Accession #NM_001042603, AA1-1090) was purchased from BPS Bioscience (Cat#50110). Baculovirus expressed Jarid1B (GenBank Accession #NM_006618, AA 2-751) was purchased from BPS Bioscience (Cat #50121) or custom made by MolecularThroughput. Baculovirus-expressed JMJD2C (GenBank Accession #BC143571, AA 2-372) was purchased from BPS Bioscience (Cat#50105).
The ability of test compounds to inhibit the activity of JMJD2C was determined in 384-well plate format under the following reaction conditions: 0.3 nM JMJD2C, 300 nM H3K9me3-biotin labeled peptide (Anaspec cat #64360), 2 μM alpha-ketoglutaric acid in assay buffer of 50 mM HEPES, pH7.3, 0.005% Brij35, 0.5 mM TCEP, 0.2 mg/ml BSA, 50 μM sodium L-ascorbate, and 2 μM ammonium iron(II) sulfate. Reaction product was determined quantitatively by TR-FRET after the addition of detection reagent Phycolink Streptavidin-allophycocyanin (Prozyme) and Europium-anti-di-methylated histone H3 lysine 9 (H3K9me2) antibody (PerkinElmer) in the presence of 5 mM EDTA in LANCE detection buffer (PerkinElmer) at a final concentration of 50 nM and 1 nM, respectively.
The reaction mixture was incubated at room temperature for 30 min, and terminated by the addition of 6 μl of 5 mM EDTA in LANCE detection buffer containing 100 nM Phycolink Streptavidin-allophycocyanin and 2 nM Europium-anti-H3K9me2 antibody. Plates were read by EnVisionMultilabel Reader in TR-FRET mode (excitation at 320 nm, emission at 615 nm and 665 nm) after 1 hr incubation at rt. A ratio was calculated (665/615) for each well and fitted to determine inhibition constant (IC50).
(In general: TR-FRET usually uses a lanthanide donor and a delayed reading to cut background.)
A word on the pIC50: it is the negative decadic logarithm of the IC50, by convention in mol/L. A higher pIC50 goes with a small IC50. Substance “3-{[(6-fluoro-3,4-dihydro-2H-chromen-4-yl)methyl]amino}-pyridine-4-carboxylic acid [Example 65]” showed a pIC50 of at least 7.00. Then “3-{[(6-chloro-1-hydroxy-1,2,3,4-tetrahydronaphthalen-1-yl)methyl]amino}pyridine-4-carboxylic acid [Example 68]”, with 6.00 to 7.00; and “3-{[(6-chloro-1,2,3,4-tetrahydronaphthalen-1-yl)methyl]amino}pyridine-4-carboxylic acid [Example 67]”, with 6.00 to 7.00.
